Source: publication PMC5030359, “Cathelicidin Antimicrobial Peptides with Reduced Activation of Toll-Like Receptor Signaling Have Potent Bactericidal Activity against Colistin-Resistant Bacteria” (mBio, 2016)
≈ marks a conversion by molar mass, not a printed value. Read-outs that look alike come from different tables or passages of the source. Ends that are not written are not given here. Peptide text beside a SMILES is read from it.

Legend:
E. cloacae 4080 = experiment: Bacterial killing, colony formation (CFU); format: cell-based, Enterobacter cloacae
Experimental: The number of CFU of E. cloacae 4080 were quantified as a function of time of incubation with a 2 µM concentration of the individual peptides. In the reactions with kanamycin (Kan), 25 µg/ml of kanamycin sulfate was used. […] The initial inoculum was 10^6 CFU in LB.

E. coli = format: cell-based, Escherichia coli; details: 2 µM peptide
Experimental: A total of 1 × 10^5 CFU of the bacteria were incubated for 30 min with the concentration of peptide or colistin shown. Approximately 500 CFU was then added as a droplet onto nonselective media for 18 h. […] The number shown is the median value of three or four independent assays. The number in parentheses is the standard deviation of all of the assays. […] The numbers are the means of three independent assays, and those in parentheses are the range for 1 standard deviation.
Incubation time: 0 min 5 min 30 min

K. pneumoniae = experiment: Bacterial killing, colony formation (CFU); format: cell-based, Klebsiella pneumoniae
Experimental: A total of 1 × 10^5 CFU of the bacteria were incubated for 30 min with the concentration of peptide or colistin shown. Approximately 500 CFU was then added as a droplet onto nonselective media for 18 h. […] The number shown is the median value of three or four independent assays. The number in parentheses is the standard deviation of all of the assays. […] (C) Quantitative analysis of the viable colonies formed by colistin-resistant bacteria. […] The numbers are the means of three independent assays, and those in parentheses are the range for 1 standard deviation.

V. fischeri = experiment: Bacterial killing, colony formation (CFU); format: cell-based; details: 2 µM peptide, 30 min incubation
V. angustum = experiment: Bacterial killing, colony formation (CFU); format: cell-based; details: 2 µM peptide, 30 min incubation
V. vulnificus = format: cell-based, Vibrio vulnificus; details: 5 min with 100 µM ampicillin or 4 µM SMAP-29D, relative to PBS control cells
Experimental: (§4) The number of CFU of E. cloacae 4080 were quantified as a function of time of incubation with a 2 µM concentration of the individual peptides. In the reactions with kanamycin (Kan), 25 µg/ml of kanamycin sulfate was used. […] The initial inoculum was 10^6 CFU in LB. […] (D to F) Fluorescence microscopy of V. vulnificus cells. […] An enlarged image of a single cell is highlighted in the boxed region. White arrows denote bulges extending from the bacterial membrane. […] Bacterial DNA is stained with DAPI (blue). […] The fate of cellular cytoplasmic contents was tracked following expression of a FliM-tdTomato fusion protein (red).

V. cholerae = format: cell-based, Vibrio cholerae; details: 5 min with 100 µM ampicillin or 4 µM SMAP-29D, relative to PBS control cells
Experimental: as §4

TLR3 = TLR3 signaling: IL-6 ELISA in BEAS-2B cells treated with poly(I·C); format: cell-based, human; details: poly(I·C) […], peptide 2 µM, ELISA, control cells = 100%, mean (SD) of minimum three assays
Experimental: (§1) Eight cathelicidins produced by eight mammals were selected for an initial examination (Fig. 1A). […] However, the number of charged residues and the lengths of the disordered residues differed (Fig. 1B). The peptides were added to BEAS-2B cells, a human lung epithelial cell line that expresses multiple TLRs and can release proinflammatory cytokines in response to their activation and the enhancement of cytokine release by LL-37 ([15]). BEAS-2B cells treated with the TLR3 agonist poly(I⋅C) and 2 µM LL-37 increased interleukin 6 (IL-6) production by threefold. All of the nonhuman cathelicidins tested had lower TLR3 signaling compared to LL-37 (Fig. 1B). The lack of TLR3 signaling by the nonhuman cathelicidins was due to the inability to use the formyl peptide receptor-like receptor 1 to endocytose the double-stranded RNA (dsRNA)−LL-37 complex and deliver the poly(I⋅C) to TLR3 in endosomes ([17]) (see Fig. S1 in the supplemental material). All of the nonhuman cathelicidins also had reduced activation of TLR9 compared to LL-37 (Fig. 1B).
(§2) FIG 1 Cathelicidins from animals have distinct abilities to act on Toll-like receptor signaling. (A) A phylogenetic relationship of cathelicidins from mammals. The figure is derived from results of Zanetti et al. (12). (B) Names, lengths, and sequences of cathelicidin peptides and their ability to affect Toll-like receptor signaling. The peptide lengths are shown in the numbers of amino acids (AAs). The residues predicted to form an α-helix are underlined with an arrow. The basic, acidic, and aromatic residues are colored blue, red, and green, respectively. TLR signaling was assessed by the amount of IL-6 cytokine produced in BEAS-2B cells. IL-6 levels were quantified using enzyme-linked immunosorbent assay (ELISA), and the level of IL-6 in the control cells is normalized to 100%. The peptides were added to the cells at a final concentration of 2 μM. Each result is the mean of a minimum of three independent assays, and the standard deviations (SD) are shown in parentheses.
(§3) The concentration of IL-6 secreted into the cell medium was quantified using the OptEIA kit (BD Biosciences, San Jose, CA). A typical assay used 1 × 10^4 BEAS-2B cells/well grown for 24 h in flat-bottom 96-well plates. Poly(I⋅C) was added to a final concentration of 0.13 µg/ml for 24 h. ODN2006 was added to 0.5 nM. Lipopolysaccharides were used at 0.5 µg/ml. All data shown are the means and ranges of 1 standard error for a minimum of three independent samples. Data sets were compared using the Student t test calculated with GraphPad Prism 5 software.

TLR9 = TLR9 signaling: IL-6 ELISA in BEAS-2B cells treated with CpG DNA ODN2006; format: cell-based, human; details: ODN2006 0.5 nM, peptide 2 µM, control cells = 100%, mean (SD) of minimum three assays
Experimental: as §1, §2, §3

TLR4 = TLR4 signaling: IL-6 ELISA in BEAS-2B cells treated with LPS; format: cell-based, human; details: BEAS-2B cells, LPS 0.5 µg/ml, peptide 2 µM, ELISA, control cells = 100%; mean (SD) of minimum three assays
Description: as §2
LL-37 at 2 µM final concentration reduced IL-6 production to approximately half that of the untreated cells (Fig. 1B).
as §3

[1] = 2 µM peptide, 30 min incubation
[2] = broth microdilution, CAMHB, at least three independent assays
[3] = strains with MIC of 16 µg/ml or less / strains tested

Experimental for 19 Gram-negative strains: (A) Sequences of the cathelicidins, the numbers of bacterial strains killed, and hRBC lysis by the cathelicidins. […] The bacterial species tested are Klebsiella pneumoniae (K. p.), Serratia marcescens (S. m.), Enterobacter cloacae (E. cl.), Escherichia coli (E. c.), and Pseudomonas aeruginosa (P. a.). MICs were determined by the microdilution assay. […] The results are the median values of at least three independent assays.
We tested a panel of cathelicidins for inhibiting growth of 19 Gram-negative strains from the family Enterobacteriaceae and the nonfermentative bacteria. The species tested were Enterobacter cloacae ([2]), Escherichia coli ([5]), Klebsiella pneumoniae ([4]), Pseudomonas aeruginosa ([4]), and Serratia marcescens ([4]). All of the strains selected have been characterized for their antibiotic resistance profiles.
(§5) Antimicrobial activity was determined using the broth microdilution method based on the guidelines of the Clinical and Laboratory Standards Institute (CLSI) ([39]), using cation-adjusted Mueller-Hinton broth (CAMHB) as the testing medium. Reference Gram-positive and Gram-negative bacteria were tested, including both enteric and Pseudomonas aeruginosa strains. Each MIC was determined in at least three independent assays.
Experimental for E. faecalis: as §5
Experimental for Enterobacter cloacae: (§6) The bacterial species tested are Klebsiella pneumoniae (K. p.), Serratia marcescens (S. m.), Enterobacter cloacae (E. cl.), Escherichia coli (E. c.), and Pseudomonas aeruginosa (P. a.). MICs were determined by the microdilution assay. […] The results are the median values of at least three independent assays.
as §5
Experimental for Escherichia coli: as §6, §5
Experimental for Klebsiella pneumoniae: as §6, §5
Experimental for Pseudomonas aeruginosa: as §6, §5
Experimental for S. aureus: as §5
Experimental for Serratia marcescens: as §6, §5

Molecule: CC[C@H](C)[C@H](NC(=O)[C@@H](NC(=O)[C@@H]1CCCN1C(=O)[C@H](CO)NC(=O)[C@H](CC(C)C)NC(=O)[C@H](CCCCN)NC(=O)[C@H](CCCCN)NC(=O)[C@H](Cc1ccccc1)NC(=O)[C@H](CC(C)C)NC(=O)[C@H](CCCCN)NC(=O)[C@H](CCCCN)NC(=O)[C@H](CC(C)C)NC(=O)[C@H](CCCCN)NC(=O)[C@H](CCCCN)NC(=O)[C@H](CCCNC(=N)N)NC(=O)[C@H](CC(C)C)NC(=O)[C@H](CCCNC(=N)N)NC(=O)[C@H](CCCCN)NC(=O)[C@H](Cc1ccccc1)NC(=O)[C@H](CCCNC(=N)N)NC(=O)CN)C(C)C)C(=O)N1CCC[C@H]1C(=O)N[C@@H](CC(C)C)C(=O)N[C@@H](CC(C)C)C(=O)N[C@@H](Cc1c[nH]cn1)C(=O)N[C@@H](CC(C)C)C(=O)NCC(=O)O [BMAP-27B] (H-GRFKRLRKKLKKLFKKLSPVIPLLHLG-OH)
- Fold redu. from To, En. cloacae 4080, 5 min (E. cloacae 4080): 2400
- Fold redu. from To, En. cloacae 4080, 30 min (E. cloacae 4080): > 19,200
- CFU/ml (SD) En. cloacae 4080, 5 min (E. cloacae 4080; 2 µM peptide (sub-heading; title says 1 µM), 5 min incubation): < 200 CFU/ml
- reduction in CFU, 120 min (E. cloacae 4080; 2 µM peptide, 120-min incubation, E. cloacae): > 4 log10 unit
- CFU/ml (SD) En. cloacae 4080, 30 min (E. cloacae 4080; [1]): < 25 CFU/ml
- CFU/ml (SD) E. coli IU-342, 5 min (E. coli; 5 min incubation): < 200 CFU/ml
- Fold redu. from To, E. coli IU-342, 5 min (E. coli; 5 min incubation): 850 fold
- CFU/ml (SD) E. coli IU-342, 30 min (E. coli; 30 min incubation): < 25 CFU/ml
- Fold redu. from To, E. coli IU-342, 30 min (E. coli; 30 min incubation): > 6,800 fold
- CFU/ml (SD) K. pneumonia 8893, 5 min (K. pneumoniae; 2 µM peptide, 5 min incubation): < 200 CFU/ml
- Fold redu. from To, K. pneumonia 8893, 5 min (K. pneumoniae; 2 µM peptide, 5 min incubation): 1050 fold
- Fold redu. from To, K. pneumonia C-2, 5 min (K. pneumoniae; 2 µM peptide, 5 min incubation): 25 fold
- CFU/ml (SD) K. pneumonia 8893, 30 min (K. pneumoniae; [1]): < 25 CFU/ml
- CFU/ml (SD) K. pneumonia C-2, 30 min (K. pneumoniae; [1]): 50 CFU/ml
- Fold redu. from To, K. pneumonia 8893, 30 min (K. pneumoniae; [1]): > 8,400 fold
- Fold redu. from To, K. pneumonia C-2, 30 min (K. pneumoniae; [1]): > 13,000 fold
- reduction in CFU, colistin-resistant K. pneumoniae (K. pneumoniae; 2 µM, Fig. 5C (K. pneumoniae 59) and data not shown): > 2 log10 unit
- CFU/ml (SD) V. fischeri, 30 min (V. fischeri): < 20 CFU/ml
- Fold redu. from To, V. fischeri, 30 min (V. fischeri): > 48,000 fold
- CFU/ml (SD) V. angustum, 30 min (V. angustum): 27 CFU/ml
- Fold redu. from To, V. angustum, 30 min (V. angustum): > 88,460 fold
- # strains inhibited at 16 µg/ml peptide E. cl. (Enterobacter cloacae): 2/2
- MIC E. cloacae 4092 (Enterobacter cloacae; [2]): 4 µg/mL (≈ 1.24 µM)
- # strains inhibited at 16 µg/ml peptide E. c. (Escherichia coli): 6/6
- MIC E. coli MC4100 (Escherichia coli; [2]): 4 µg/mL (≈ 1.24 µM)
- # strains inhibited at 16 µg/ml peptide K. p. (Klebsiella pneumoniae): 4/4
- # strains inhibited at 16 µg/ml peptide P. a. (Pseudomonas aeruginosa): 4/4
- MIC P. aeruginosa 4083 (Pseudomonas aeruginosa): 4 µg/mL (≈ 1.24 µM)
- MIC P. aeruginosa PAO1 (Pseudomonas aeruginosa): 4 µg/mL (≈ 1.24 µM)
- MIC P. aeruginosa PAO1 ΔOprD (Pseudomonas aeruginosa; [2]): 4 µg/mL (≈ 1.24 µM)
- # strains inhibited at 16 µg/ml peptide S. m. (Serratia marcescens): 3/3
- No. of strains inhibited at 16 µg/ml/total no. of strains (19 Gram-negative strains): 19/19
- MIC E. faecalis 29212 (E. faecalis): >32 µg/mL
- MIC E. faecalis 51299 (E. faecalis): >32 µg/mL
- MIC S. aureus 25923 (S. aureus): 32 µg/mL (≈ 9.95 µM)
- MIC S. aureus 29213 (S. aureus): 32 µg/mL (≈ 9.95 µM)

Molecule: CC1(C)S[C@@H]2[C@H](NC(=O)[C@H](N)c3ccccc3)C(=O)N2[C@H]1C(=O)O [ampicillin]
- reduction in CFU, V. vulnificus (V. vulnificus): less than 1 log10 unit
- reduction in CFU, V. cholerae (V. cholerae): less than 1 log10 unit

Molecule: CRAMP
- % IL-6 produced compared to controls (SD) TLR3 (TLR3): 57(10) %
- % IL-6 produced compared to controls (SD) TLR9 (TLR9): 41(7) %
- % IL-6 produced compared to controls (SD) TLR4 (TLR4): 41(7) %
- # strains inhibited at 16 µg/ml peptide E. cl. (Enterobacter cloacae; [3]): 1/2
- # strains inhibited at 16 µg/ml peptide E. c. (Escherichia coli): 1/6
- # strains inhibited at 16 µg/ml peptide K. p. (Klebsiella pneumoniae; [3]): 0/4
- # strains inhibited at 16 µg/ml peptide P. a. (Pseudomonas aeruginosa): 0/4
- # strains inhibited at 16 µg/ml peptide S. m. (Serratia marcescens; [3]): 0/3
- No. of strains inhibited at 16 µg/ml/total no. of strains (19 Gram-negative strains): 2/19

Molecule: GLRKKFRKTRKRIQKLGRKIGKTGRKVWKAWREYGQIPYPCRI [CAP-11]
- % IL-6 produced compared to controls (SD) TLR3 (TLR3): 148(8) %
- % IL-6 produced compared to controls (SD) TLR9 (TLR9): 79(10) %
- % IL-6 produced compared to controls (SD) TLR4 (TLR4): 9(4) %
- # strains inhibited at 16 µg/ml peptide E. cl. (Enterobacter cloacae; [3]): 2/2
- # strains inhibited at 16 µg/ml peptide E. c. (Escherichia coli): 5/6
- # strains inhibited at 16 µg/ml peptide K. p. (Klebsiella pneumoniae; [3]): 4/4
- # strains inhibited at 16 µg/ml peptide P. a. (Pseudomonas aeruginosa): 4/4
- # strains inhibited at 16 µg/ml peptide S. m. (Serratia marcescens; [3]): 1/3
- No. of strains inhibited at 16 µg/ml/total no. of strains (19 Gram-negative strains; 19 Gram-negative strains, MIC of 16 µg/ml or less): 16
